This test has as its system HCV 1b-377-neo replicon cells. As to the kind of experiment: HCV replicon assay, HCV 1b-377-neo replicon cells (1b FRET). The note with it: Hepatitis C virus, HCV 1b-377-neo replicon cells; HCV 1b genotype; read-out: EC50 range against HCV 1b (Table 2, Range). The class given is cell-based, Hepatitis C virus genotype 1b. Put shortly:
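Compounds tested in HCV genotype 1b-377-neo replicon cells with a FRET read-out. Cells resistant to a reference NS5A inhibitor through a Y2065H NS5A mutation were run alongside wild-type cells.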

Drawing on patent US8574563B2 (Bristol-Myers Squibb Company, priority 2006, dated 2013), this text covers EC50 for 18 compounds.

Consider `COC(=O)N[C@@H](C)C(=O)N1CCC[C@H]1c1ncc(-c2ccc(-c3ccc(-c4cnc([C@@H]5CCCN5C(=O)[C@H](Cc5cncn5C)NC(=O)OC)[nH]4)cc3)cc2)[nH]1` [cj-45, methyl ((1S)-2-((2S)-2-(5-(4′-(2-((2S)-1-(N-(methoxycarbonyl)-L-alanyl)-2-pyrrolidinyl)-1H-imidazol-5-yl)-4-biphenylyl)-1H-imidazol-2-yl)-1-pyrrolidinyl)-1-((1-methyl-1H-imidazol-5-yl)methyl)-2-oxoethyl)carbamate], for which the EC50 (as a rule, the midpoint of the concentration-response curve) was 0.001 to 0.999 nM. The figure for `COC(=O)N[C@@H](Cc1cncn1C)C(=O)N1CCC[C@H]1c1ncc(-c2ccc(-c3ccc(-c4cnc([C@@H]5CCCN5C(=O)[C@@H](NC(=O)OC)C(C)C)[nH]4)cc3)cc2)[nH]1` [cj-46, methyl ((1S)-1-(((2S)-2-(5-(4′-(2-((2S)-1-((2S)-2-((methoxycarbonyl)amino)-3-(1-methyl-1H-imidazol-5-yl)propanoyl)-2-pyrrolidinyl)-1H-imidazol-5-yl)-4-biphenylyl)-1H-imidazol-2-yl)-1-pyrrolidinyl)carbonyl)-2-methylpropyl)carbamate] is 0.001 to 0.999 nM; for `COC(=O)N[C@@H](Cc1cncn1C)C(=O)N1CCC[C@H]1c1ncc(-c2ccc(-c3ccc(-c4cnc([C@@H]5CCCN5C(=O)[C@@H](NC(=O)OC)[C@@H](C)OC)[nH]4)cc3)cc2)[nH]1` [cj-47, methyl ((1S)-2-((2S)-2-(5-(4′-(2-((2S)-1-((2S,3R)-3-methoxy-2-((methoxycarbonyl)amino)butanoyl)-2-pyrrolidinyl)-1H-imidazol-5-yl)-4-biphenylyl)-1H-imidazol-2-yl)-1-pyrrolidinyl)-1-((1-methyl-1H-imidazol-5-yl)methyl)-2-oxoethyl)carbamate] it is 1 to 99 nM; for `COC(=O)N[C@@H](C)C(=O)N1CCC[C@H]1c1ncc(-c2ccc(-c3ccc(-c4cnc([C@@H]5CCCN5C(=O)[C@@H]5CC(=O)N5)[nH]4)cc3)cc2)[nH]1` [cj-48] it is 100 to 999 nM. `COC(=O)N[C@@H](C)C(=O)N1CCC[C@H]1c1ncc(-c2ccc(-c3ccc(-c4cnc([C@@H]5CCCN5C(=O)[C@@H]5CCN5C(=O)OC)[nH]4)cc3)cc2)[nH]1` [cj-49, methyl (2S)-2-(((2S)-2-(5-(4′-(2-((2S)-1-(N-(methoxycarbonyl)-L-alanyl)-2-pyrrolidinyl)-1H-imidazol-5-yl)-4-biphenylyl)-1H-imidazol-2-yl)-1-pyrrolidinyl)carbonyl)-1-azetidinecarboxylate]: the 50% effective concentration (EC50) lay within 1 to 99 nM. The same measure for `CCN(CC)[C@@H](C(=O)N1CCC[C@H]1c1ncc(-c2ccc(-c3ccc(-c4cnc([C@@H]5CCCN5C(=O)[C@@H]5CCN5C(=O)OC)[nH]4)cc3)cc2)[nH]1)c1ccccc1` [cj-50, methyl (2S)-2-(((2S)-2-(5-(4′-(2-((2S)-1-((2R)-2-(diethylamino)-2-phenylacetyl)-2-pyrrolidinyl)-1H-imidazol-5-yl)-4-biphenylyl)-1H-imidazol-2-yl)-1-pyrrolidinyl)carbonyl)-1-azetidinecarboxylate]: 0.001 to 0.999 nM. As for `CCN(CC)[C@@H](C(=O)N1CCC[C@H]1c1ncc(-c2ccc(-c3ccc(-c4cnc([C@@H]5CCCN5C(=O)C[C@H](C)NC(=O)OC)[nH]4)cc3)cc2)[nH]1)c1ccccc1` [cj-51, methyl ((1S)-3-((2S)-2-(5-(4′-(2-((2S)-1-((2R)-2-(diethylamino)-2-phenylacetyl)-2-pyrrolidinyl)-1H-imidazol-5-yl)-4-biphenylyl)-1H-imidazol-2-yl)-1-pyrrolidinyl)-1-methyl-3-oxopropyl)carbamate], the EC50 lay within 0.001 to 0.999 nM. The figure for `CCN(CC)[C@@H](C(=O)N1CCC[C@H]1c1ncc(-c2ccc(-c3ccc(-c4cnc([C@@H]5CCCN5C(=O)C[C@@H](NC(=O)OC)C(C)C)[nH]4)cc3)cc2)[nH]1)c1ccccc1` [cj-52, methyl ((1R)-3-((2S)-2-(5-(4′-(2-((2S)-1-((2R)-2-(diethylamino)-2-phenylacetyl)-2-pyrrolidinyl)-1H-imidazol-5-yl)-4-biphenylyl)-1H-imidazol-2-yl)-1-pyrrolidinyl)-1-isopropyl-3-oxopropyl)carbamate] is 0.001 to 0.999 nM. The figure for `CCN(CC)[C@@H](C(=O)N1CCC[C@H]1c1ncc(-c2ccc(-c3ccc(-c4cnc([C@@H]5CCCN5C(=O)C[C@H](Cc5ccccc5)NC(=O)OC)[nH]4)cc3)cc2)[nH]1)c1ccccc1` [cj-53, methyl ((1S)-1-benzyl-3-((2S)-2-(5-(4′-(2-((2S)-1-((2R)-2-(diethylamino)-2-phenylacetyl)-2-pyrrolidinyl)-1H-imidazol-5-yl)-4-biphenylyl)-1H-imidazol-2-yl)-1-pyrrolidinyl)-3-oxopropyl)carbamate] is 0.001 to 0.999 nM. The figure for `CCN(CC)[C@@H](C(=O)N1CCC[C@H]1c1ncc(-c2ccc(-c3ccc(-c4cnc([C@@H]5CCCN5C(=O)C[C@H](Cc5cccs5)NC(=O)OC)[nH]4)cc3)cc2)[nH]1)c1ccccc1` [cj-54, methyl ((1R)-3-((2S)-2-(5-(4′-(2-((2S)-1-((2R)-2-(diethylamino)-2-phenylacetyl)-2-pyrrolidinyl)-1H-imidazol-5-yl)-4-biphenylyl)-1H-imidazol-2-yl)-1-pyrrolidinyl)-3-oxo-1-(2-thienylmethyl)propyl)carbamate] is 0.001 to 0.999 nM; for `CCN(CC)[C@@H](C(=O)N1CCC[C@H]1c1ncc(-c2ccc(-c3ccc(-c4cnc([C@@H]5CCCN5C(=O)C[C@@H](Cc5ccsc5)NC(=O)OC)[nH]4)cc3)cc2)[nH]1)c1ccccc1` [cj-55, methyl ((1R)-3-((2S)-2-(5-(4′-(2-((2S)-1-((2R)-2-(diethylamino)-2-phenylacetyl)-2-pyrrolidinyl)-1H-imidazol-5-yl)-4-biphenylyl)-1H-imidazol-2-yl)-1-pyrrolidinyl)-3-oxo-1-(3-thienylmethyl)propyl)carbamate] it is 0.001 to 0.999 nM; for `CCN(CC)[C@@H](C(=O)N1CCC[C@H]1c1ncc(-c2ccc(-c3ccc(-c4cnc([C@@H]5CCCN5C(=O)C[C@@H](Cc5cccs5)NC(=O)OC)[nH]4)cc3)cc2)[nH]1)c1ccccc1` [cj-56, methyl ((1S)-3-((2S)-2-(5-(4′-(2-((2S)-1-((2R)-2-(diethylamino)-2-phenylacetyl)-2-pyrrolidinyl)-1H-imidazol-5-yl)-4-biphenylyl)-1H-imidazol-2-yl)-1-pyrrolidinyl)-3-oxo-1-(2-thienylmethyl)propyl)carbamate] it is 0.001 to 0.999 nM. With `CCN(CC)[C@@H](C(=O)N1CCC[C@H]1c1ncc(-c2ccc(-c3ccc(-c4cnc([C@@H]5CCCN5C(=O)[C@@H]5CC[C@H](NC(=O)OC)C5)[nH]4)cc3)cc2)[nH]1)c1ccccc1` [cj-57, methyl ((1S,3R)-3-(((2S)-2-(5-(4′-(2-((2S)-1-((2R)-2-(diethylamino)-2-phenylacetyl)-2-pyrrolidinyl)-1H-imidazol-5-yl)-4-biphenylyl)-1H-imidazol-2-yl)-1-pyrrolidinyl)carbonyl)cyclopentyl)carbamate], the EC50 was in the range of 0.001 to 0.999 nM. The same measure for `CCN(CC)[C@@H](C(=O)N1CCC[C@H]1c1ncc(-c2ccc(-c3ccc(-c4cnc([C@@H]5CCCN5C(=O)C[C@@H](Cc5ccccc5)NC(=O)OC)[nH]4)cc3)cc2)[nH]1)c1ccccc1` [cj-58, methyl ((1R)-1-benzyl-3-((2S)-2-(5-(4′-(2-((2S)-1-((2R)-2-(diethylamino)-2-phenylacetyl)-2-pyrrolidinyl)-1H-imidazol-5-yl)-4-biphenylyl)-1H-imidazol-2-yl)-1-pyrrolidinyl)-3-oxopropyl)carbamate]: 0.001 to 0.999 nM; for `CCN(CC)[C@@H](C(=O)N1CCC[C@H]1c1ncc(-c2ccc(-c3ccc(-c4cnc([C@@H]5CCCN5C(=O)[C@H]5CC[C@@H](NC(=O)OC)C5)[nH]4)cc3)cc2)[nH]1)c1ccccc1` [cj-60, methyl ((1R,3S)-3-(((2S)-2-(5-(4′-(2-((2S)-1-((2R)-2-(diethylamino)-2-phenylacetyl)-2-pyrrolidinyl)-1H-imidazol-5-yl)-4-biphenylyl)-1H-imidazol-2-yl)-1-pyrrolidinyl)carbonyl)cyclopentyl)carbamate]: 0.001 to 0.999 nM.

On to `COC(=O)N[C@H]1CC[C@@H](C(=O)N2CCC[C@H]2c2ncc(-c3ccc(-c4ccc(-c5cnc([C@@H]6CCCN6C(=O)[C@@H](NC(=O)OC)C(C)C)[nH]5)cc4)cc3)[nH]2)C1` [cj-61, methyl ((1S)-1-(((2S)-2-(5-(4′-(2-((2S)-1-(((1R,3S)-3-((methoxycarbonyl)amino)cyclopentyl)carbonyl)-2-pyrrolidinyl)-1H-imidazol-5-yl)-4-biphenylyl)-1H-imidazol-2-yl)-1-pyrrolidinyl)carbonyl)-2-methylpropyl)carbamate], for which the EC50 lay within 0.001 to 0.999 nM. The figure for `COC(=O)N[C@@H]1CC[C@H](C(=O)N2CCC[C@H]2c2ncc(-c3ccc(-c4ccc(-c5cnc([C@@H]6CCCN6C(=O)[C@@H](NC(=O)OC)C(C)C)[nH]5)cc4)cc3)[nH]2)C1` [cj-62, methyl ((1S)-1-(((2S)-2-(5-(4′-(2-((2S)-1-(((1S,3R)-3-((methoxycarbonyl)amino)cyclopentyl)carbonyl)-2-pyrrolidinyl)-1H-imidazol-5-yl)-4-biphenylyl)-1H-imidazol-2-yl)-1-pyrrolidinyl)carbonyl)-2-methylpropyl)carbamate] is 0.001 to 0.999 nM. The figure for `COC(=O)N[C@H]1CC[C@@H](C(=O)N2CCC[C@H]2c2ncc(-c3ccc(-c4ccc(-c5cnc([C@@H]6CCCN6C(=O)[C@H](NC(=O)OC)c6ccccc6)[nH]5)cc4)cc3)[nH]2)C1` [cj-63, methyl ((1R)-2-((2S)-2-(5-(4′-(2-((2S)-1-(((1R,3S)-3-((methoxycarbonyl)amino)cyclopentyl)carbonyl)-2-pyrrolidinyl)-1H-imidazol-5-yl)-4-biphenylyl)-1H-imidazol-2-yl)-1-pyrrolidinyl)-2-oxo-1-phenylethyl)carbamate] is 0.001 to 0.999 nM.
